Reference: patent EP0982027A1, “Taxoid derivatives for treating abnormal cell proliferation of the brain” (RHONE-POULENC RORER S.A., priority 1998, dated 2000)
Values joined by “and” are separate entries in the source; they are usually repeats but may differ in a detail not shown here. Equal entries are not always repeated. Where two headings read alike, the source gives them in different places.

Assay: in vivo
Set-up: species or system female C3H/HeN mice
Details: mouse, 40 mg.kg^-1 i.v.; for AUC0-∞: mean level data
Method: Groups of female C3H/HeN mice received the product by the intravenous route as a bolus at a dose level of 40 mg.kg^-1 equivalent to 120 mg.m^-2. Blood and brain samples were obtained from all dosed animals sacrificed at intervals up to 72 hours post dose. Brain and corresponding plasma samples have been assayed for product Ia content by an LC-MS/MS assay.
• Formulation: 2.25 mg.ml^-1 solution containing 5 % Polysorbate 80, 5 % ethanol and 90 % of an aqueous 5 % glucose solution. […]
• Sampling : Blood by cardiac puncture and liver and brain by dissection after CO2 sacrifice • Sample Times : at 2, 5, 15, 30, 45 minutes, 1, 2, 4, 6, 8, 14, 24, 48 and 72 hours post dose.
Whole blood was collected into heparinised tubes and corresponding plasma samples were obtained by centrifugation and frozen immediately at -20°C. Tissues were blotted, weighed and frozen immediately at -20°C. All samples were dispatched frozen for analysis. Upon receipt, samples were stored frozen at approximately -18°C pending analysis.
• Detection: LC-MS/MS (Sciex API III plus) in turbo-ionspray mode
The following MS conditions were applied:
Column: 75 x 4.6 mm Supelcosil ABZ plus (3 µm). Mobile phase: Acetonitrile/methanol/ammonium acetate (10mM); 40/25/35 v/v/v. Flow rate : 1 ml.min^-1. Temperature : Ambient. Extraction : Plasma: Add 100 µl of acetonitrile to sample (50 µl). Vortex, centrifuge, remove supernatant, add 100 µl of mobile phase and inject 150 µl. Brain : Add 100 µl of acetonitrile to homogenised sample (100 mg of a 1:1 w/w brain with water homogenate) and vortex. Add 1ml of diethyl ether, vortex, centrifuge, remove organic layer and dry under N2. Reconstitute in 200 µl of mobile phase and inject 150 µl. Calibration standards: Plasma : Nine at concentrations of 5, 10, 20, 50, 100, 200, 300, 400 & 500 ng.ml^-1 (product Ia). Prepared by adding suitable aliquots of the product (concentrations = 0.1, 1 or 10 µg.ml^-1) in ethanol to 0.5 ml aliquots of mouse plasma. Each sample was vortexed following drug addition; a 50 µl aliquot was then removed for assay. Brain : Eleven at concentrations of 10, 20, 30, 100, 200, 300, 400, 500, 1000, 2500 & 5000 ng.g^-1 in homogenised mouse brain (1:1 w/w brain with water). Prepared by adding suitable aliquots of the product (concentrations = 1, 10 or 100 µg.ml^-1) in ethanol to 0.5, 1, 3 or 4 g of homogenised mouse brain. Each sample was vortexed following drug addition and a 100 mg aliquot was then removed for assay. Retention times: Drug; product Ia: ∼2.3 min. Extraction efficiency : Plasma : ca.58 % at 200 ng.ml^-1. Brain : ca.41 % at 500 ng.g^-1 and 39 % at 1000 ng.g^-1.
A biexponential equation was fitted to the profiles using an interactive linear least-square algorithm as part of the SIPHAR package.
AUC0-∞: Area under the plasma or brain concentration versus time curve from t=0 (start of infusion) to infinity. Initial T1/2: Initial (distribution) half-life. Terminal T1/2: Terminal (elimination) half-life (should be regarded as an estimate only being dependent on sampling frequency in the terminal phase and assay sensitivity). ClT: Total plasma clearance. Vdss: Volume of distribution at steady state. n.a.: Not applicable.

## CO[C@H]1C(=O)[C@]2(C)[C@@H](OC)C[C@H]3OC[C@@]3(OC(C)=O)[C@H]2[C@H](OC(=O)c2ccccc2)[C@]2(O)C[C@H](OC(=O)[C@H](O)[C@@H](NC(=O)OC(C)(C)C)c3ccccc3)C(C)=C1C2(C)C [product Ia, 4α-acetoxy-2α-benzoyloxy-5β,20-epoxy-1β-hydroxy-7β,10β-dimethoxy-9-oxo-11-taxen-13α-yl (2R,3S)-3 tert-butoxycarbonylamino-2-hydroxy-3-phenylpropionate]
Brain, extrapolated from 72h to infinity
  AUC0-∞: 788 h.µg.g^-1 and 787.8* h.µg.g^-1
Plasma#, calculated from values ≥ b.l.q. of 20 ng.ml^-1
  ClT: 21.7 mL/min/kg
Plasma+, calculated from values ≥ l.o.d. of 4 ng.ml^-1
  ClT: 21.7 mL/min/kg
Plasma+, calculated from values ≥ l.o.d. of 4 ng.ml^-1, listed as product Ic, 40 mg/kg
  AUC0-∞: 30.0 µg·h/mL
brain, iv, at 14h, read-out: brain peak levels
  Cmax at 14 h: 9100 ng/g
iv, Brain, read-out: Terminal T1/2 (converted)
  half-life: 31.4 h
iv, Plasma+, calculated from values ≥ l.o.d. of 4 ng.ml^-1, read-out: ClT (converted)
  clearance: 21.7 mL/min/kg
Limit 4 ng.ml^-1
  time post dose up to which plasma levels were consistently above the limit of detection: up to 24 h
Limit 20 ng.ml^-1
  time post dose up to which plasma levels persisted above the limit of accurate quantification: up to 14 h
2 min after dose, individual animals IV1-IV4, 40 mg/kg, 2 min
  Plasma product Ic concentration: 45942 ng/mL and 49607 ng/mL and 38994 ng/mL
2 min after dose, individual animals IV1-IV4, listed as product Ic, 40 mg/kg, 2 min
  Brain product Ic concentration: 8817 ng/g and 8147 ng/g and 7630 ng/g
5 min after dose, individual animals IV1-IV4, 40 mg/kg, 5 min
  Plasma product Ic concentration: 33538 ng/mL and 32077 ng/mL and 34903 ng/mL
5 min after dose, individual animals IV1-IV4, listed as product Ic, 40 mg/kg, 5 min
  Brain product Ic concentration: 8473 ng/g and 7762 ng/g and 8091 ng/g
15 min after dose, individual animals IV1-IV4, 40 mg/kg, 15 min
  Plasma product Ic concentration: 20897 ng/mL and 21051 ng/mL and 19459 ng/mL
15 min after dose, individual animals IV1-IV4, listed as product Ic, 40 mg/kg, 15 min
  Brain product Ic concentration: 7100 ng/g and 7641 ng/g and 6481 ng/g
0.5h after dose, individual animals IV1-IV4, 40 mg/kg, 30 min
  Plasma product Ic concentration: 10344 ng/mL and 9170 ng/mL and 11232 ng/mL
0.5h after dose, individual animals IV1-IV4, listed as product Ic, 40 mg/kg, 30 min
  Brain product Ic concentration: 6788 ng/g and 8317 ng/g and 6894 ng/g
0.75h after dose, individual animals IV1-IV4, 40 mg/kg, 45 min
  Plasma product Ic concentration: 10948 ng/mL and 8121 ng/mL and 10148 ng/mL
0.75h after dose, individual animals IV1-IV4, listed as product Ic, 40 mg/kg, 45 min
  Brain product Ic concentration: 8086 ng/g and 7513 ng/g and 7272 ng/g
1h after dose, individual animals IV1-IV4, 40 mg/kg, 60 min
  Plasma product Ic concentration: 7423 ng/mL and 6693 ng/mL and 6079 ng/mL
1h after dose, individual animals IV1-IV4, listed as product Ic, 40 mg/kg, 60 min
  Brain product Ic concentration: 6424 ng/g and 8964 ng/g and 1747 ng/g and 7489 ng/g
2h after dose, individual animals IV1-IV4, listed as product Ic, 40 mg/kg, 120 min
  Brain product Ic concentration: 8418 ng/g and 6966 ng/g and 7017 ng/g
4h after dose, individual animals IV1-IV4, 40 mg/kg, 240 min
  Plasma product Ic concentration: 1110 ng/mL and 835 ng/mL and 830 ng/mL
4h after dose, individual animals IV1-IV4, listed as product Ic, 40 mg/kg, 240 min
  Brain product Ic concentration: 6939 ng/g and 6712 ng/g and 5459 ng/g
6h after dose, individual animals IV1-IV4, 40 mg/kg, 360 min
  Plasma product Ic concentration: 316 ng/mL and 346 ng/mL and 336 ng/mL
6h after dose, individual animals IV1-IV4, listed as product Ic, 40 mg/kg, 360 min
  Brain product Ic concentration: 6688 ng/g and 7968 ng/g and 7350 ng/g and 3712 ng/g
8h after dose, individual animals IV1-IV4, 40 mg/kg, 480 min
  Plasma product Ic concentration: 199 ng/mL and 195 ng/mL and 154 ng/mL
8h after dose, individual animals IV1-IV4, listed as product Ic, 40 mg/kg, 480 min
  Brain product Ic concentration: 6977 ng/g and 8616 ng/g and 8342 ng/g
14h after dose, individual animals IV1-IV4, 40 mg/kg, 840 min
  Plasma product Ic concentration: 56 ng/mL and 50 ng/mL and 52 ng/mL
14h after dose, individual animals IV1-IV4, listed as product Ic, 40 mg/kg, 840 min
  Brain product Ic concentration: 10049 ng/g and 7595 ng/g and 9271 ng/g
24 h after dose, individual animals IV1-IV4, listed as product Ic, 40 mg/kg, 1440 min
  Brain product Ic concentration: 9842 ng/g and 7885 ng/g and 9052 ng/g
24 h after dose, individual animals IV1-IV4, values flagged blq (below limit of accurate quantification, 20 ng.ml^-1), 40 mg/kg, 1440 min
  Plasma product Ic concentration: 15(blq) ng.ml^-1 (2×) and 16(blq) ng.ml^-1
48 h after dose, individual animals IV1-IV4, blq = below 20 ng.ml^-1, n.d. = not detected (≤ l.o.d. of 4 ng.ml^-1)
  Plasma product Ic concentration: 4(blq) ng.ml^-1
48 h after dose, individual animals IV1-IV4, listed as product Ic, 40 mg/kg, 2880 min
  Brain product Ic concentration: 8541 ng/g and 7704 ng/g and 7986 ng/g
72 h after dose, individual animals IV1-IV4, listed as product Ic, 40 mg/kg, 4320 min
  Brain product Ic concentration: 5511 ng/g and 5692 ng/g and 3894 ng/g
Time after dose printed as '-' (line between 1h and 4h), MEAN
  Plasma product Ic concentration: 4283 ng/mL
Time after dose printed as '-' (line between 1h and 4h), individual animals IV1-IV4, 40 mg/kg
  Plasma product Ic concentration: 4633 ng/mL and 4337 ng/mL and 4600 ng/mL and 3564 ng/mL
brain, iv, 40 mg/kg, 2 min after dose, MEAN, read-out: Brain product Ic concentration
  concentration at 2 min: 7890 ng/g
brain, iv, 40 mg/kg, 2 min after dose, individual animals IV1-IV4, read-out: Brain product Ic concentration
  concentration at 2 min: 6960 ng/g
brain, iv, 40 mg/kg, 5 min after dose, MEAN, read-out: Brain product Ic concentration
  concentration at 5 min: 8170 ng/g
brain, iv, 40 mg/kg, 5 min after dose, individual animals IV1-IV4, read-out: Brain product Ic concentration
  concentration at 5 min: 8340 ng/g
brain, iv, 40 mg/kg, 15 min after dose, MEAN, read-out: Brain product Ic concentration
  concentration at 0.25 h: 6760 ng/g
brain, iv, 40 mg/kg, 15 min after dose, individual animals IV1-IV4, read-out: Brain product Ic concentration
  concentration at 0.25 h: 5810 ng/g
brain, iv, 40 mg/kg, 0.5h after dose, MEAN, read-out: Brain product Ic concentration
  concentration at 0.5 h: 7320 ng/g
brain, iv, 40 mg/kg, 0.5h after dose, individual animals IV1-IV4, read-out: Brain product Ic concentration
  concentration at 0.5 h: 7260 ng/g
brain, iv, 40 mg/kg, 0.75h after dose, MEAN, read-out: Brain product Ic concentration
  concentration at 0.75 h: 7640 ng/g
brain, iv, 40 mg/kg, 0.75h after dose, individual animals IV1-IV4, read-out: Brain product Ic concentration
  concentration at 0.75 h: 7680 ng/g
brain, iv, 40 mg/kg, 1h after dose, MEAN, read-out: Brain product Ic concentration
  concentration at 1 h: 6160 ng/g
brain, iv, 40 mg/kg, 2h after dose, MEAN, read-out: Brain product Ic concentration
  concentration at 2 h: 7590 ng/g
brain, iv, 40 mg/kg, 2h after dose, individual animals IV1-IV4, read-out: Brain product Ic concentration
  concentration at 2 h: 7960 ng/g
brain, iv, 40 mg/kg, 4h after dose, MEAN, read-out: Brain product Ic concentration
  concentration at 4 h: 6760 ng/g
